Measurements reported in patent publication US20190083455A1, “METHODS AND COMPOSITIONS FOR THE MODULATION OF BETA-ENDORPHIN LEVELS” (The General Hospital Corporation, priority 2014, published 2019).
Structures can show the parent of a compound that is named as a salt.

Key:
Format in all cases: in vivo
C57Bl/6 mice [1] = test: Analgesic threshold testing (von Frey test and hot plate test) during UV/mock regimen; settings: 10 mg/kg ip 15 min prior to testing; chronically UV-irradiated mice
Description: Mice underwent mechanical and thermal analgesic testing during UV/mock treatment regimens using the von Frey test (Kwan et al., 2006) and the hot plate test respectively (Mogil et al., 1999). In the von Frey test, mice were placed in individual enclosures on an elevated wire mesh rack and the plantar surface of the left hind paw was serially poked with fibers of increasing tensile strength (10 times per fiber at a rate of 1/second) until a paw withdrawal response was elicited on 2/10 pokes. In the hot plate test, mice were placed on a 52° C. hot plate and time to response (paw flutter, paw licking, jumping) was measured. […]
We developed a UV-exposure mouse model in which dorsally-shaved mice received a dose of 50 mJ/cm^2 of UVB, 5 days per week for 6 weeks, an empirically-derived sub-erythemic dose which is approximately equal to 20-30 minutes of ambient midday sun exposure in Florida during the summer for a fair-skinned person of average tanning ability (Fitzpatrick skin phototypes 2-3) (D'Orazio et al., 2006; Technology-Planning-and-Management-Corporation, 2000; US-EPA, 1994). […] We quantified mechanical and thermal nociceptive thresholds over six weeks of daily UV exposure. Mechanical nociception was measured by the von Frey test (Kwan et al., 2006), which exposes fibers of increasing tensile strength to the plantar paw surface to elicit a paw withdrawal response. […]

C57Bl/6 mice [2] = test: Conditioned place aversion testing
Procedure: The apparatus used consisted of a box with black interior and dim lighting and a box with white interior and bright lighting connected by a smaller gray “neutral” box, and procedures were followed as described (Skoubis et al., 2001; Weitemier and Murphy, 2009). Mice that had undergone 6 weeks of daily UV exposure or mock exposure were tested for baseline place preferences prior to conditioning (10-minute testing time per mouse). Over the following 4 days, conditioning took place in which mice were either conditioned with naloxone (10 mg/kg ip injection) or saline (ip injection) in the black box, and all animals were conditioned with saline (ip injection) in the white box. Conditioning time in each box was 30 minutes following injection. For each animal there were four hours between conditioning in one box and conditioning in the other box. On the day following the final day of conditioning, place preferences were again tested (post-conditioning, 10-minute testing time per mouse).
Because the magnitude of the measured withdrawal symptoms, while significant, was smaller than that commonly observed with exogenously administered opioids (Broseta et al., 2002), we wished to determine whether these withdrawal signs would be sufficient to elicit alterations in pro-active/operant behavioral choices. We utilized a conditioned place aversion assay (Skoubis et al., 2001; Weitemier and Murphy, 2009) to test whether a specific environment, paired with naloxone administration during conditioning, would be avoided in favor of a different environment paired with a neutral stimulus (saline) during conditioning in chronically UV-irradiated animals. Due to the kinetics of the UV response we chose to use naloxone as it allowed an acute effect of limited duration. Naloxone induces conditioned place aversion in exogenous opioid-dependent mice (Glass et al., 2008; Kenny et al., 2006). Following conditioning, mice were permitted to move freely between the two environments and changes in place preference were measured, in the absence of additional naloxone or saline administration. […]

C57Bl/6 mice [3] = test: Somatic symptoms of opiate withdrawal after chronic UV exposure; settings: 2 mg/kg ip after 6 weeks of daily UV exposure; observed 25 minutes
Procedure: Mice that had undergone 6 weeks of daily UV exposure or mock exposure were injected (ip) with either 2 mg/kg naloxone or saline, and signs of opioid withdrawal were tabulated as described (Olson et al., 2006). […] Wet dog shake, teeth chatter, and bouts of grooming were measured as occurrence in each 15-second interval. Individual rearing events were counted. Number of fecal pellets at the end of the 25-minute interval was used to quantify diarrhea.

β-endorphin = test: Plasma β-endorphin radioimmunoassay in UV/mock irradiated mice; settings: mice treated twice a week with Naloxone or Saline; daily UV or Mock irradiation
Description: Mice were dorsally shaved two days prior to the start of radiation exposure, then exposed to 50 mJ/cm^2/day of UVB, an empirically determined sub-erythematic dose, 5 days per week (Monday-Friday) for 6 weeks. If there were patches of fur re-growth, mice were re-shaved once every two weeks.
For blood draws, mice were placed in a standard restrainer and tail vein blood was collected in EDTA microvette tubes containing 0.6TIU aprotinin. Mice underwent blood draws prior to the start of radiation exposure, once per week during the radiation exposure regimen, and once per week for two weeks following cessation of the UV regimen. Blood was drawn in the mornings prior to radiation exposure on Fridays.
Tubes of collected blood were maintained on ice until centrifugation at 3500 RPM for 20 minutes at 4° C. Plasma was isolated and samples were stored at −80° C. until β-endorphin measurement. β-endorphin was quantified by radioimmunoassay (Phoenix Pharmaceuticals, Burlingame, Calif.).

C=CCN1CC[C@]23c4c5ccc(O)c4O[C@H]2C(=O)CC[C@@]3(O)[C@H]1C5 [naloxone, naloxone hydrochloride]
mechanical nociceptive threshold (von Frey) (C57Bl/6 mice [1]): suppressed the UV-induced increases in mechanical and thermal nociceptive thresholds
thermal nociceptive threshold (hot plate 52° C.) (C57Bl/6 mice [1]): suppressed the UV-induced increases in mechanical and thermal nociceptive thresholds
conditioned place aversion (C57Bl/6 mice [2]; 10 mg/kg ip conditioning in the black box, chronically UV-irradiated mice): sufficient to induce conditioned place aversion
conditioned place aversion (C57Bl/6 mice [2]; 10 mg/kg ip conditioning in the black box, mock-treated (non-UV irradiated) control mice): had no effect on mock-treated (non-UV irradiated) control mice
conditioned place aversion (C57Bl/6 mice [2]; K14cre control mice vs p53fl/fl K14cre mice after 3 weeks of daily UV exposure): significant naloxone conditioned place aversion
signs of opioid withdrawal (C57Bl/6 mice [3]): elicited many of the classic murine signs of opioid withdrawal
plasma β-endorphin (β-endorphin): no significant effect of Naloxone treatment within either group
